Measurements: patent US20030022820A1, “IN VIVO ACTIVATION OF TUMOR-SPECIFIC CYTOTOXIC T CELLS” (priority 1995, published 2003)
Several values for one entry are separate records, joined by “and”; a condition that tells them apart may be missing. Equal entries are not always repeated. Where two headings read alike, the source gives them in different places.

Columns and labels:
A2.1/K^b-Tg mice = experiment: Peptide priming of A2.1/K^b-Tg mice, lytic activity of peptide-specific CTL; assay type: in vivo
HLA-A2.1 = HLA-A2.1 (Homo sapiens, UniProt P04439, D140Y/D185E/D98H/E176V/E277Q/G131W/G231S/I119V/I121R/I166T/I218V/L300P/L318F/N151K/N90K/P208A/P217A/Q86G/Q94H/R138H/R169H/T345S); experiment: Competition assay for peptide binding to HLA-A2.1 (inhibition of A clone 12 lysis of M1-pulsed EA2 targets)
[1] = tested on: A2.1/K^b×CD8 or A2.1 transgenic (Tg) mice; experiment: Immunization of transgenic mice with Her-2/neu peptides, cytotoxicity against peptide-pulsed T2-A2.1/K^b; assay type: in vivo; settings: A2.1/K^b×CD8 or A2.1 Tg mice
Protocol: A2.1/K^b×CD8 and/or A2.1 transgenic mice were immunized with each of the peptides listed in Table 6 to determine if they could stimulate A2.1-restricted CTL. Mice were immunized with a mixture of 100 mg of the Her-2/neu peptide with 120 mg “helper” peptide in 100 ml Incomplete Freund's Adjuvant (IFA).
A2.1/K^b×CD8 or A2.1 lipopolysaccharide (LPS) -blasts were prepared as stimulators for in vitro restimulation of spleen cells from immunized mice. These were prepared by incubating splenocytes from A2/K^b or A2.1 mice in complete RPMI containing 25 mg/ml LPS and 7 mg/ml dextran sulfate at 1.5×10^6 cells/ml in a total volume of 30 ml for 3 days. […] Six days following in vitro restimulation, the CTL populations were assayed for lytic activity against T2-A2/K^b target cells preincubated with the peptide used for stimulation (15 mM). The resultant Her-2/neu peptide-specific CTL populations were maintained in vitro by weekly restimulation. […]
Spleen cells from injected animals were restimulated in vitro with irradiated syngeneic cells pulsed with the peptide used for in vivo priming. Immunogenicity was evaluated by assaying these cultured cells for cytotoxicity against T2-A2.1/K^b target cells pulsed with the priming peptide. […]

JY = experiment: Cytotoxicity assay, lysis of human tumors by H3 and H7 specific CTL; assay type: cell-based; design: scale not given here
Protocol: (§1) […] target cells were incubated at 37° C. with […] of sodium ^51Cr chromate for 90 minutes in the presence or absence of specific peptide. Cells were washed three times and resuspended in 5% RPMI. For the assay, […] ^51Cr-labeled target cells were incubated with different concentrations of effector cells in a final volume of […] in U-bottomed 96-well plates. Supernatants were removed after 4-7 hrs at 37° C., and the percent specific lysis was determined by the following formula: [formula]
(§2) Tumor cells were preincubated for 24 hours prior to the assay in media supplemented with γ-interferon (γ-IFN, 20 ng/ml) plus tumor necrosis factor-α (TNF-α, 3 ng/ml). It is known that such pretreatment of tumor cells increases the expression of MHC I and adhesion molecules such as ICAM I on the surface of the cell thus enhancing their sensitivity to lysis by CTL. (See, e.g., Fisk, et al., Lympho. & Cytokine Res. 13: 125-131 (1994); Fady, et al., Cancer Immunol. Immunother. 37: 329-336 (1993).)

MDA.MB435 = experiment: as above; assay type: cell-based; design: scale not given here
Protocol: as §1, §2

MALME-3M = experiment: as above; assay type: cell-based; design: scale not given here
Protocol: as §1, §2

LG-2 = experiment: as above; assay type: cell-based
Protocol: as §1, §2

SAOS.175 = experiment: as above; assay type: cell-based
Protocol: as §1, §2

CASKI = experiment: as above; assay type: cell-based
Protocol: as §1, §2

ST486 = experiment: as above; assay type: cell-based
Protocol: as §1, §2

OVCAR-5 = experiment: as above; assay type: cell-based
Protocol: as §1, §2

T98G = experiment: as above; assay type: cell-based
Protocol: as §1, §2

U2-OS = experiment: as above; assay type: cell-based
Protocol: as §1, §2

SV80 = experiment: as above; assay type: cell-based
Protocol: as §1, §2

SKMEL-5 = experiment: as above; assay type: cell-based
Protocol: as §1, §2

[2] = E:T 60:1, T2A2/K^b targets pulsed with two mg of peptide, highest of at least three individual mice
[3] = peptide-priming of A2.1/K^b-Tg mice

AAPPVAPA [hu-wt-p53: 69-76]
Lytic Activity by Peptide-Specific CTL After Priming of A2.1/K^b-Tg Mice [Specific 51Cr release (%)] (A2.1/K^b-Tg mice; mouse, in vivo): 0%

AAPPVAPAPA [hu-wt-p53: 69-78]
Lytic Activity by Peptide-Specific CTL After Priming of A2.1/K^b-Tg Mice [Specific 51Cr release (%)] (A2.1/K^b-Tg mice; [2]): 0%

AAPPVAPAPAA [hu-wt-p53: 69-79]
Lytic Activity by Peptide-Specific CTL After Priming of A2.1/K^b-Tg Mice [Specific 51Cr release (%)] (A2.1/K^b-Tg mice; [2]): 0%

AAPTPAAPA [hu-wt-p53: 78-86]
Lytic Activity by Peptide-Specific CTL After Priming of A2.1/K^b-Tg Mice [Specific 51Cr release (%)] (A2.1/K^b-Tg mice; [2]): 0%

ASNENMETM [Flu NP 1934: 366-374, reference compound]
(%) [inhibition of A2.1-binding of M1 (58-66)] (HLA-A2.1): 4%

DLMLSPDDI [hu-wt-p53: 42-50]
Lytic Activity by Peptide-Specific CTL After Priming of A2.1/K^b-Tg Mice [Specific 51Cr release (%)] (A2.1/K^b-Tg mice; [2]): 0%

GLAPPQHLI [hu-wt-p53: 187-195]
Lytic Activity by Peptide-Specific CTL After Priming of A2.1/K^b-Tg Mice [Specific 51Cr release (%)] (A2.1/K^b-Tg mice; [2]): 1%
A2.1/K^b-restricted peptide-specific CTL response, in words (A2.1/K^b-Tg mice; [3]): lack of CTL responsiveness
A2.1-binding activity / affinity, in words (HLA-A2.1): high

IISAVVGIL [Peptide H11]
ability to stimulate a CTL response in Tg mice, in words [1]: could not elicit a response

ILKEPVHGV [HIV-1 RT: 476-484, reference compound]
A2.1/K^b-restricted peptide-specific CTL response, in words (A2.1/K^b-Tg mice; mouse, in vivo): could mount an A2.1/K^b-restricted CTL response
Lytic Activity by Peptide-Specific CTL After Priming of A2.1/K^b-Tg Mice [Specific 51Cr release (%)] (A2.1/K^b-Tg mice; mouse, in vivo): 85%
(%) [inhibition of A2.1-binding of M1 (58-66)] (HLA-A2.1): 72%

ITLEDSSGNL [hu-wt-p53: 255-264]
Lytic Activity by Peptide-Specific CTL After Priming of A2.1/K^b-Tg Mice [Specific 51Cr release (%)] (A2.1/K^b-Tg mice; [2]): 3%
A2.1/K^b-restricted peptide-specific CTL response, in words (A2.1/K^b-Tg mice; [3]): lack of CTL responsiveness
A2.1-binding activity / affinity, in words (HLA-A2.1): intermediate

KLVGKLNWA [HIV-9K, reference compound]
Killing of Tumors Expressing Her-2/neu (JY): 2 and 1
Killing of Tumors Expressing Her-2/neu (MDA.MB435): 4 and 3
Killing of Tumors Expressing Her-2/neu (MALME-3M): 2 and 1
Killing of Tumors Expressing Her-2/neu (LG-2): 1
Killing of Tumors Expressing Her-2/neu (SAOS.175): 18 and 11
Killing of Tumors Expressing Her-2/neu (CASKI): 8 and 11
Killing of Tumors Expressing Her-2/neu (ST486): 1
Killing of Tumors Expressing Her-2/neu (OVCAR-5): 10 and 12
Killing of Tumors Expressing Her-2/neu (T98G): 9 and 13
Killing of Tumors Expressing Her-2/neu (U2-OS): 18 and 24
Killing of Tumors Expressing Her-2/neu (SV80): 2
Killing of Tumors Expressing Her-2/neu (SKMEL-5): 5 and 4

LLGRDSFEV [mur-wt-p53: 261-269]
Lytic Activity by Peptide-Specific CTL After Priming of A2.1/K^b-Tg Mice [Specific 51Cr release (%)] (A2.1/K^b-Tg mice; [2]): 10%
A2.1/K^b-restricted peptide-specific CTL response, in words (A2.1/K^b-Tg mice; [3]): No significant response
A2.1-binding activity / affinity, in words (HLA-A2.1; competition with M1 (58-66)): highest A2.1-binding activity of all p53 peptides tested
